From the supplement of paper PMC10307832

Assays:
Test in all cases: relative viability (nuclei count vs DMSO), 5 days (fraction); higher = more cells survive
Sunitinib + Olaparib = compound: CCN(CC)CCNC(=O)c1c(C)[nH]c(/C=C2\C(=O)Nc3ccc(F)cc32)c1C [Sunitinib] + O=C(c1cc(Cc2n[nH]c(=O)c3ccccc23)ccc1F)N1CCN(C(=O)C2CC2)CC1 [Olaparib] (partner 8 µM)
Method in brief: (§1)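 For relative viability, nuclei counts in treated wells were divided by those in vehicle wells. Lung cancer cell lines had been pin-tool dosed in 1536-well plates the day after seeding and cultured for 5 days, then fixed and stained in one step (final 0.05% Triton X-100, 1% formaldehyde, 1 ug/ml Hoechst) and imaged at 4×. Doses were one drug alone or a fixed anchor-drug dose plus five library-drug doses (not always all listed) in √10 steps, and values are duplicate-plate medians.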

Sunitinib + Alpelisib = compound: CCN(CC)CCNC(=O)c1c(C)[nH]c(/C=C2\C(=O)Nc3ccc(F)cc32)c1C [Sunitinib] + Cc1nc(NC(=O)N2CCC[C@H]2C(N)=O)sc1-c1ccnc(C(C)(C)C(F)(F)F)c1 [Alpelisib] (partner 2 µM)
Method in brief: as §1

Sunitinib + Pemetrexed = compound: CCN(CC)CCNC(=O)c1c(C)[nH]c(/C=C2\C(=O)Nc3ccc(F)cc32)c1C [Sunitinib] + Nc1nc2[nH]cc(CCc3ccc(C(=O)N[C@@H](CCC(=O)O)C(=O)O)cc3)c2c(=O)[nH]1 [Pemetrexed] (partner 0.2 µM)
Method in brief: as §1

Sunitinib + Palbociclib = compound: CCN(CC)CCNC(=O)c1c(C)[nH]c(/C=C2\C(=O)Nc3ccc(F)cc32)c1C [Sunitinib] + CC(=O)c1c(C)c2cnc(Nc3ccc(N4CCNCC4)cn3)nc2n(C2CCCC2)c1=O [Palbociclib] (partner 0.5 µM)
Method in brief: as §1

Cell Line	relative viability (Sunitinib + Olaparib; first compound 0.02 µM)	relative viability (Sunitinib + Olaparib; first compound 0.06325 µM)	relative viability (Sunitinib + Olaparib; first compound 0.2 µM)	relative viability (Sunitinib + Olaparib; first compound 0.6325 µM)	relative viability (Sunitinib + Olaparib; first compound 2 µM)	relative viability (Sunitinib + Alpelisib; first compound 0.02 µM)	relative viability (Sunitinib + Alpelisib; first compound 0.06325 µM)	relative viability (Sunitinib + Alpelisib; first compound 0.2 µM)	relative viability (Sunitinib + Alpelisib; first compound 0.6325 µM)	relative viability (Sunitinib + Alpelisib; first compound 2 µM)	relative viability (Sunitinib + Pemetrexed; first compound 0.02 µM)	relative viability (Sunitinib + Pemetrexed; first compound 0.06325 µM)	relative viability (Sunitinib + Pemetrexed; first compound 0.2 µM)	relative viability (Sunitinib + Pemetrexed; first compound 0.6325 µM)	relative viability (Sunitinib + Pemetrexed; first compound 2 µM)	relative viability (Sunitinib + Palbociclib; first compound 0.02 µM)	relative viability (Sunitinib + Palbociclib; first compound 0.06325 µM)	relative viability (Sunitinib + Palbociclib; first compound 0.2 µM)	relative viability (Sunitinib + Palbociclib; first compound 0.6325 µM)	relative viability (Sunitinib + Palbociclib; first compound 2 µM)
NCI-H23	0.353	0.28	0.307	0.312	0.307	0.568	0.747	0.751	0.828	0.692	0.689	0.823	0.922	0.86	0.563	0.469	0.599	0.488	0.532	0.49
NCI-H322M	0.83	0.771	0.798	0.802	0.745	0.728	0.739	0.855	0.822	0.664	0.654	0.601	0.652	0.62	0.577	0.454	0.48	0.479	0.461	0.497
NCI-H358	0.452	0.617	0.756	0.666	0.471	0.902	0.803		0.762	0.451	0.178	0.181	0.177	0.177	0.167	0.138	0.158	0.138	0.132	0.125
NCI-H441	0.481	0.557	0.796	0.659	0.61		0.83	0.766	0.569	0.487	0.263	0.253	0.278	0.235	0.257	0.223	0.233	0.237	0.232	0.221
NCI-H460	0.41	0.484	0.614	0.473	0.578	0.454	0.567	0.615	0.661	0.258	0.0562	0.061	0.0606	0.0589	0.0505	0.157	0.189	0.124	0.226	0.171
NCI-H520	0.395	0.338	0.314	0.377	0.335	1.01	0.841	0.867		0.729	0.61	0.814	0.686	0.761	0.6	0.237	0.248	0.224	0.27	0.267
NCI-H647	0.536	0.517	0.655	0.639	0.396	1.05	1.04	1.36	1.21	0.82	0.189	0.197	0.187	0.209	0.193	0.328	0.398	0.406	0.43	0.316
NCI-H650	0.399	0.405	0.39	0.445	0.384	0.891	0.608	1.25	1.14	1.16	0.877	0.958	0.914	1.05	1.01	0.298	0.338	0.308	0.355	0.396
NCI-H661	0.716	0.739	0.733	0.711	0.773	0.597	0.547	0.515	0.582	0.759	0.882	0.958	0.915	0.978	0.943	0.383	0.444	0.397	0.41	0.47
NCI-H838	0.757	0.766	0.812	0.731	0.58		0.999	1.16	0.992		0.239	0.258	0.263	0.243	0.228	0.221	0.23	0.237	0.227	0.2
NCI-H1355	0.786	0.812	0.904	0.818	0.712	0.73	0.848		0.829	0.857	0.997	1.14	1.1	1.08		0.41	0.393	0.44	0.382	0.393
NCI-H1395	0.441	0.438	0.478	0.484	0.482	0.995	1.14	1.72	1.31	1.05	0.845	0.937	0.935	1.1	0.91	0.638	0.625	0.649	0.745	0.619
NCI-H1437	0.623	0.641	0.614	0.61	0.647	0.949	0.974		1.01	0.905	0.336	0.329	0.345	0.309	0.322	0.294	0.347	0.305	0.346	0.329
NCI-H1651	0.213	0.196	0.199	0.17	0.179	0.738	0.969	1.17	1.02	0.991	0.597	0.609	0.617	0.481	0.604	0.488	0.539	0.516	0.498	0.55
NCI-H1666	0.77	0.825	0.75	0.862	0.85	0.865	0.938	1.03	1.02	0.971	0.827	0.834	0.936	0.867	0.997	0.655	0.665	0.677	0.657	0.621
NCI-H1734	0.552	0.618	0.691	0.619	0.539	0.626	0.673	0.869	0.669	0.641	0.406	0.426	0.396	0.411	0.411	0.364	0.375	0.37	0.34	0.323
